From patent publication US20100144886A1, “METHOD FOR TREATING PULMONARY ARTERIAL HYPERTENSION” (AGI Therapeutics Research Limited, priority 2006, published 2010)
Where two headings read alike, the source gives them in different places.

Key:
5-HT1D receptor = 5-HT1D receptor (Homo sapiens, UniProt P28221); details: at 100×10^−7 M
Experimental: (§1) Each of those receptors was analyzed by methods known in the art. Initial assessment of binding at 100×10^−7 M (10 micro molar) was performed in duplicate.

5-HT2B receptor [1] = target: T1, 5-HT2B receptor (Homo sapiens, UniProt P41595)
T1 sequence (P41595 whole entry): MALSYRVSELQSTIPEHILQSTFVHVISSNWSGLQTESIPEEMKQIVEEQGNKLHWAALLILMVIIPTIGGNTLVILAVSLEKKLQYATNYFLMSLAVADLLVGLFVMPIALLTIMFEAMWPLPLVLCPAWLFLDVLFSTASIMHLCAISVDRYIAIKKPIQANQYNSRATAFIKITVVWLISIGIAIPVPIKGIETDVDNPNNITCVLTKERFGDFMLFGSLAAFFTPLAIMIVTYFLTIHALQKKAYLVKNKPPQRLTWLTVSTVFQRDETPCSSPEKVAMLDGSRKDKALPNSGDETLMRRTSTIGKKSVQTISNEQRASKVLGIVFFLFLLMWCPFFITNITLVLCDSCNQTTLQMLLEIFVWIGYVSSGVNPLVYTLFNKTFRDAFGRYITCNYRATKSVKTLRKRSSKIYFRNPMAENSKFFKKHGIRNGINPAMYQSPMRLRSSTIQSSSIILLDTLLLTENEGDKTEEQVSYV
Experimental: as §1

5-HT4E receptor = 5-HT4E receptor (Homo sapiens, UniProt Q13639); details: at 100×10^−7 M
Chain of 5-HT4E receptor (Q13639 1-378 isoform Q13639-5): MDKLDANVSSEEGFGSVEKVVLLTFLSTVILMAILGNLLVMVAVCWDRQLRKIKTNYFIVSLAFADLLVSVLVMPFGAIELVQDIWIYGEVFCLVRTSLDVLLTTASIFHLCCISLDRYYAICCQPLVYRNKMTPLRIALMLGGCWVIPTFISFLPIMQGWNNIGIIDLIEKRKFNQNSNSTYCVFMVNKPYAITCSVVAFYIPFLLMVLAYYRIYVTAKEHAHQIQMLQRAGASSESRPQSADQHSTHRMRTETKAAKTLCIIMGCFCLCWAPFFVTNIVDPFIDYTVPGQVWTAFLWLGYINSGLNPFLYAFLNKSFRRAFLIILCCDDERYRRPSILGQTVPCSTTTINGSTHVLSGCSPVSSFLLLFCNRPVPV
Experimental: as §1

5-HT5A receptor = 5-HT5A receptor (Homo sapiens, UniProt P47898); details: at 100×10^−7 M
Chain of 5-HT5A receptor (P47898 whole entry): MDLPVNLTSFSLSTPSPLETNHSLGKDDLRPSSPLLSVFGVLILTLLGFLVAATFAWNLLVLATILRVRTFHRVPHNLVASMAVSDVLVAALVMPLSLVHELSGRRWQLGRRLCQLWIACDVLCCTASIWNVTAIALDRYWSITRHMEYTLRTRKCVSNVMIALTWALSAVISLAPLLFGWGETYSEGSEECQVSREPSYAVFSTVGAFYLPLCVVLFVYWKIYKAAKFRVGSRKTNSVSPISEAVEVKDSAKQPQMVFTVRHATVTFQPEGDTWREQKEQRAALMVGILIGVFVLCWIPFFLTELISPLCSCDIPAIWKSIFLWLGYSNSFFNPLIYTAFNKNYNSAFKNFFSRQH
Experimental: as §1

5-HT6 receptor = 5-HT6 receptor (Homo sapiens, UniProt P50406); details: at 100×10^−7 M
Chain of 5-HT6 receptor (P50406 whole entry): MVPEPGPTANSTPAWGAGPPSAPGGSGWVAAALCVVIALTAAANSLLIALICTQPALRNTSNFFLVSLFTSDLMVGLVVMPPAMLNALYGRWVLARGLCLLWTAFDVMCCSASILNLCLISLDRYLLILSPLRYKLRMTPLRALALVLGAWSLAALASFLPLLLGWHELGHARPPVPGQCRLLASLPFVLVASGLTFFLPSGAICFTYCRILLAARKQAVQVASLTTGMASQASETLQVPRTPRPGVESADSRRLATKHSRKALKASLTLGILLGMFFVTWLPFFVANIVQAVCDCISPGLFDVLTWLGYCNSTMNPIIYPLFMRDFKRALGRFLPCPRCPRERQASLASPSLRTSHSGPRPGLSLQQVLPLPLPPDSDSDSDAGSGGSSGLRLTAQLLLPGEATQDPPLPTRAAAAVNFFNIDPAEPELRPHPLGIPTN
Experimental: as §1

Na channel = Na channel binding
Source text: […]. […] […].
Those results are summarized at Table 9.

[2] = target: L-type calcium channel binding (CCB) site (Rattus norvegicus, UniProt P22002); assay: L-type calcium channel binding (CCB) affinity; details: rat cerebral cortex; relevant L-type calcium channel site of each blocker
Chain of L-type calcium channel binding (CCB) site (P22002 whole entry): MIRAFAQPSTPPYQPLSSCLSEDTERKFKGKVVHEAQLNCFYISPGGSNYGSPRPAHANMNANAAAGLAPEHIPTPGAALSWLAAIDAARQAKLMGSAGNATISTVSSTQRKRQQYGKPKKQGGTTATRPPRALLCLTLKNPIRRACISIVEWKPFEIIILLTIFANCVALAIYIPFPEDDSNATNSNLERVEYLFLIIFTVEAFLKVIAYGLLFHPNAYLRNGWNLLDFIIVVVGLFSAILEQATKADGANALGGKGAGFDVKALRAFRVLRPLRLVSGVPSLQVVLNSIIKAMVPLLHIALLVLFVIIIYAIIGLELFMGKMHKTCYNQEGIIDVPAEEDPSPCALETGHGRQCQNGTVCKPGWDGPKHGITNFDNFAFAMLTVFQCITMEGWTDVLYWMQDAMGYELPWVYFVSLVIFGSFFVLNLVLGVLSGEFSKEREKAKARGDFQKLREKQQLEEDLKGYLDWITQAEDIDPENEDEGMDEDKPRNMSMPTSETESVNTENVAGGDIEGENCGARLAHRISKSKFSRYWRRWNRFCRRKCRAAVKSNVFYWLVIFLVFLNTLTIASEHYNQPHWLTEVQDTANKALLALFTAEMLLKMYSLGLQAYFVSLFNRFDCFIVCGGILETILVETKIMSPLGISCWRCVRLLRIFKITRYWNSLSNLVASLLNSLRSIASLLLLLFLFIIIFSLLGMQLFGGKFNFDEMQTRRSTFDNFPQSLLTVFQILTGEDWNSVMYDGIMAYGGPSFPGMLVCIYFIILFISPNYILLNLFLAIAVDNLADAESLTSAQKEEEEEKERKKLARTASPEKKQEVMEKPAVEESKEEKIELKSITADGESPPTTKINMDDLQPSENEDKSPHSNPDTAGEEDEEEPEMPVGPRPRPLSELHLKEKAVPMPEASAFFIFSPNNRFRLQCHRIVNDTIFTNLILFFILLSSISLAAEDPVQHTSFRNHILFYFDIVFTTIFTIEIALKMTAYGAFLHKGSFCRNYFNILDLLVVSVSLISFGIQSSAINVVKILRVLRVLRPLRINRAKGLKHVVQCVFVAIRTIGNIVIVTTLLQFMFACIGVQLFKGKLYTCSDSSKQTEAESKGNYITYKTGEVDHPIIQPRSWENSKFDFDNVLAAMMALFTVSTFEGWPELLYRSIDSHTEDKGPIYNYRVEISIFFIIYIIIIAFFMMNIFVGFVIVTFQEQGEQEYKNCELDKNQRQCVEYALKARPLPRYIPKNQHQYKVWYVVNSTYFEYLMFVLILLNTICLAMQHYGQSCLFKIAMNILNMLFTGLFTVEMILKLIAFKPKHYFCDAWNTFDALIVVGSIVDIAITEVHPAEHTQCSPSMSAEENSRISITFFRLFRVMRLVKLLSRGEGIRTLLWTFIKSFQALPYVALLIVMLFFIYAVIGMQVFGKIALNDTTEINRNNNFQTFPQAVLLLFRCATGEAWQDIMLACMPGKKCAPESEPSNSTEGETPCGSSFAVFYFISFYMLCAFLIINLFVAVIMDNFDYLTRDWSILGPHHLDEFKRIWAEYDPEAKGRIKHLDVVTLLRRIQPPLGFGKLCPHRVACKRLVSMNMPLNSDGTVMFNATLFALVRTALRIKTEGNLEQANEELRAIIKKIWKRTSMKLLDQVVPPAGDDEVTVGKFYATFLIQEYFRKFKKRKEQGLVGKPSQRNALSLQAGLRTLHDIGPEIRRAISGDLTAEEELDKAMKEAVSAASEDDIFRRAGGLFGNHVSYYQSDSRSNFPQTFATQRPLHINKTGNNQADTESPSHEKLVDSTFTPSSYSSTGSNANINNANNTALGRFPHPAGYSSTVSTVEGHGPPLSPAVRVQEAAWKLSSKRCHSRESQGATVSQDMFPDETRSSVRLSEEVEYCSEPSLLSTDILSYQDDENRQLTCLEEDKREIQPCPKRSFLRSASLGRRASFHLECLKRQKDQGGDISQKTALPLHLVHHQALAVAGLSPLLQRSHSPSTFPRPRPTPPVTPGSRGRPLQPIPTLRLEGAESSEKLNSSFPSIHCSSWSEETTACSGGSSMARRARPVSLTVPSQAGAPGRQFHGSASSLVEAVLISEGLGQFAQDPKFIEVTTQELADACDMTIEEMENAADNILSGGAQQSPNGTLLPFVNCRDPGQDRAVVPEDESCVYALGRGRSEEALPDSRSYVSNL
Experimental: as §1
The binding activity of the reported receptors was analyzed using the following methods.
There are three distinct binding sites on the L-type calcium channel receptor. Further, the binding affinity at a particular site can be allosterically modulated by binding at one of the other sites. Thus, testing included the affinity of the different types of calcium channel blockers at their particular site of interaction.

melatonin ML-1 [3] = assay: Melatonin ML1 binding affinity; design: species or system chicken; details: relative potency compared to CCB, Table 2
Experimental: as §1

melatonin ML-1 [4] = target: T2, melatonin ML-1; assay: Melatonin ML1 binding affinity; design: species or system chicken
T2 construct: other: chicken brain; other: at 100×10^−7 M
Experimental: as §1

5-HT2B receptor [5] = target: T1, 5-HT2B receptor; assay: 5-HT2B binding affinity of racemic verapamil and other calcium channel blockers (5-HT control, Bonhaus method); design: expressed in transfected cells; host or cells: CHO cells; details: relative potency compared to CCB, Table 2
Experimental: as §1

Chain of 5-HT1D receptor (P28221 whole entry): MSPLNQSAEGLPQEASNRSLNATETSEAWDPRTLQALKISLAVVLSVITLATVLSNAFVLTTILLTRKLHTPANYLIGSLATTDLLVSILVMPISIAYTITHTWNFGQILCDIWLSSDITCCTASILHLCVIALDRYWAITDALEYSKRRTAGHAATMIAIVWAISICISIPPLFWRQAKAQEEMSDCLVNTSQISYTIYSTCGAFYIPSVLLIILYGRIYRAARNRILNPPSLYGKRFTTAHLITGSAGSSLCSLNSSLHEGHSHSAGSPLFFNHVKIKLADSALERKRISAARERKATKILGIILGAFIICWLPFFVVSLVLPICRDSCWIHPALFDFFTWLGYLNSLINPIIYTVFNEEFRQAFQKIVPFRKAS

COc1ccc(CCN(C)CCC[C@](C#N)(c2ccc(OC)c(OC)c2)C(C)C)cc1OC [(R)-verapamil]
percentage of binding, 5-HT1D (5-HT1D receptor): >100(17%) | % Binding, 5-HT2B (5-HT2B receptor [1]; at 0.1 (×10^−7 M)): 0% | % Binding, 5-HT2B (5-HT2B receptor [1]; at 0.3 (×10^−7 M)): 10% | % Binding, 5-HT2B (5-HT2B receptor [1]; at 1.0 (×10^−7 M)): 39% | % Binding, 5-HT2B (5-HT2B receptor [1]; at 3.0 (×10^−7 M)): 68% | percentage of binding, 5-HT4E (5-HT4E receptor): >100(24%) | percentage of binding, 5-HT5A (5-HT5A receptor): >100(19%) | percentage of binding, 5-HT6 (5-HT6 receptor): >100(47%) | IC50 (Na channel): 1800 nM

COC(=O)C1=C(C)NC(C)=C(C(=O)OC(C)C)C1c1cccc2nonc12 (centres unmarked) [Isradipine]
IC50 [2]: 0.46 nM | (IC50: ML-1)/(IC50: CCB) (melatonin ML-1 [3]): 4,348 | IC50 (melatonin ML-1 [4]; chicken brain): 2000 nM | (IC50: 5-HT2B)/(IC50: CCB) (5-HT2B receptor [5]): 21,739

COc1ccc([C@@H]2Sc3ccccc3N(CCN(C)C)C(=O)[C@@H]2OC(C)=O)cc1 [Diltiazem]
percentage of binding, ML-1 (melatonin ML-1 [4]; at 100×10^−7 M): >100(9%)
